Reference: ChEMBL document CHEMBL4483862, “Open-source discovery of chemical leads for next-generation chemoprotective antimalarials” (2018)

System: Plasmodium berghei
Assay: Luciferase/luciferin-expressing antifolate-resistant parasites were used to infect a culture of HepG2 cells that were pre-incubated with compounds. Infected hepatocytes emit light due to the luciferase reaction. Assay results are presented as the percent inhibition of light emission compared to control. […]
Format: functional
Conditions: sporozoite; for IC90: read-out: LUCIFERASE INFECTION ASSAY - IC90
[1] = read-out: LUCIFERASE INFECTION ASSAY - IC50

**Q.** How did the IC50 (FFLUC_HILL_SLOPE 2.53, FFLUC_R_SQUARED 0.599, read-out: LUCIFERASE INFECTION ASSAY - IC50) turn out when C=CCn1c(SCC(=O)c2cc(C)n(CC3CCCO3)c2C)nc2scc(-c3ccc(C)cc3)c2c1=O (stereo unspecified) was run?
**A.** The IC50 was over 10 µM.

**Q.** And the IC90?
**A.** Its IC90 is over 10 µM.

**Q.** C(=C1\CCc2cnc3scc[n+]3c21)/c1ccccc1 was tested. Which IC50 (HEPG2TOX_HILL_SLOPE 2.32, HEPG2TOX_R_SQUARED 0.938, read-out: LUCIFERASE INFECTION ASSAY - IC50) did it give?
**A.** Its IC50 is over 10 µM.

**Q.** And the IC90?
**A.** Its IC90 is over 10 µM.

**Q.** How did the IC50 (FFLUC_HILL_SLOPE 19.9, FFLUC_R_SQUARED 0.198, HEPG2TOX_HILL_SLOPE 3.67, HEPG2TOX_R_SQUARED 0.922, PBLUC_HILL_SLOPE 10.3, PBLUC_R_SQUARED 0.464, read-out: LUCIFERASE INFECTION ASSAY - IC50) turn out when Clc1cccc(-c2[nH]nc3nccc(-c4ccc(N5CCNCC5)cc4)c23)c1 was run?
**A.** The IC50 was 3.3 µM.

**Q.** What about the IC90 of the same molecule?
**A.** Its IC90 is 4.08 µM.

**Q.** Which IC50 [1] does the source give for CCCCN(C(=O)CSc1nnc(-c2ccc(OC)cc2)n1C(C)C)c1c(N)n(CCCC)c(=O)[nH]c1=O here?
**A.** Its IC50 is over 10 µM.

**Q.** And the IC90?
**A.** The IC90 was over 10 µM.

**Q.** How did the IC50 [1] turn out when Cc1nn2c(nc(NCCCc3n[nH]c(N)c3C#N)c3ccccc32)c1Cl was run?
**A.** The IC50 was over 10 µM.

**Q.** And the IC90?
**A.** Its IC90 is over 10 µM.

**Q.** What does the source list for CN(CC(=O)Nc1ccc(Cl)c(S(=O)(=O)N2CCCCC2)c1)C1CCc2ccccc21 (stereo unspecified)?
**A.** IC50 (PBLUC_HILL_SLOPE 13.6, PBLUC_R_SQUARED 0.21, read-out: LUCIFERASE INFECTION ASSAY - IC50): 9.96 µM; IC90: > 10 µM

**Q.** Which IC50 [1] does the source give for CCc1ccc(CNCc2ccc3c(c2)OCO3)cc1 here?
**A.** Its IC50 is over 12.3 µM.

**Q.** What about the IC90 of the same molecule?
**A.** Its IC90 is over 12.3 µM.

**Q.** How did the IC50 (PBLUC_HILL_SLOPE 11.3, PBLUC_R_SQUARED 0.241, read-out: LUCIFERASE INFECTION ASSAY - IC50) turn out when COc1ccc(-c2cnc3cnc(-c4cccc(C(=O)NCCO)c4)cn23)cn1 was run?
**A.** Its IC50 is 8.2 µM.

**Q.** And the IC90?
**A.** Its IC90 is over 8.47 µM.

**Q.** Which results are given for COc1ccc([N+](=O)[O-])cc1C(=O)Nc1nc2c(s1)CCCCC2?
**A.** IC50 (FFLUC_HILL_SLOPE 3.14, FFLUC_R_SQUARED 0.813, PBLUC_HILL_SLOPE 0.763, PBLUC_R_SQUARED 0.879, read-out: LUCIFERASE INFECTION ASSAY - IC50): 0.0231 µM; IC90: 0.411 µM

**Q.** With CCOC(=O)c1c(C)[nH]c(C(=O)CSc2nnc(C3COc4ccccc4O3)n2-c2ccccc2)c1C (stereo unspecified) as the molecule, how does the IC50 [1] read?
**A.** Its IC50 is over 10 µM.

**Q.** What about the IC90 of the same molecule?
**A.** The IC90 was over 10 µM.

**Q.** Which IC50 [1] does the source give for CC(=O)Nc1ccc(S(=O)(=O)NCCC(=O)OCc2ccccc2F)cc1 here?
**A.** Its IC50 is over 10 µM.

**Q.** What about the IC90 of the same molecule?
**A.** The IC90 was over 10 µM.

**Q.** c1ccc(-c2csc3nc(CN4CCOCC4)nc(NCc4cnn(-c5ccccc5)c4)c23)cc1 was tested. Which IC50 [1] did it give?
**A.** The IC50 was over 10 µM.

**Q.** And the IC90?
**A.** Its IC90 is over 10 µM.

**Q.** Which IC50 (HEPG2TOX_HILL_SLOPE 2.15, HEPG2TOX_R_SQUARED 0.552, PBLUC_HILL_SLOPE 10.1, PBLUC_R_SQUARED 0.355, read-out: LUCIFERASE INFECTION ASSAY - IC50) does the source give for COc1cc(-c2[nH]nc3nccc(-c4ccc(C(C)C)cc4)c23)cc(OC)c1OC here?
**A.** Its IC50 is 8.21 µM.

**Q.** What about the IC90 of the same molecule?
**A.** The IC90 was over 10 µM.

**Q.** How did the IC50 (PBLUC_HILL_SLOPE 1.54, PBLUC_R_SQUARED 0.0374, read-out: LUCIFERASE INFECTION ASSAY - IC50) turn out when N#CC1(C#N)C2C=CC(C2)C1(C#N)C#N was run?
**A.** Its IC50 is over 17 µM.

**Q.** What about the IC90 of the same molecule?
**A.** The IC90 was over 17 µM.

**Q.** What does the source list for CC(C)(C)c1ccc(/C=C/C(=O)NCc2ccc(NC(=O)C3CC3)cc2)cc1?
**A.** IC50 [1]: 2.38 µM; IC90: 6.63 µM

**Q.** How did the IC50 (HEPG2TOX_HILL_SLOPE 2.95, HEPG2TOX_R_SQUARED 0.991, PBLUC_HILL_SLOPE 3.77, PBLUC_R_SQUARED 0.729, read-out: LUCIFERASE INFECTION ASSAY - IC50) turn out when Cc1nn(Cc2ccccc2Cl)c(C)c1CN(C)C(=O)/C=C/c1cnn(-c2ccccc2)c1 was run?
**A.** Its IC50 is 5.47 µM.

**Q.** And the IC90?
**A.** The IC90 was 9.8 µM.

**Q.** With COc1ccc(Nc2cc(C)nc(Nc3ccc(OC)cc3)n2)cc1 as the molecule, how does the IC50 (HEPG2TOX_HILL_SLOPE 1.69, HEPG2TOX_R_SQUARED 0.922, PBLUC_HILL_SLOPE 13, PBLUC_R_SQUARED 0.323, read-out: LUCIFERASE INFECTION ASSAY - IC50) read?
**A.** The IC50 was 3.32 µM.

**Q.** What about the IC90 of the same molecule?
**A.** Its IC90 is 3.93 µM.

**Q.** Which IC50 [1] does the source give for CSC(SC)=C(C#N)S(=O)(=O)C(C)C here?
**A.** The IC50 was over 13.1 µM.

**Q.** What about the IC90 of the same molecule?
**A.** The IC90 was over 13.1 µM.

**Q.** Which results are given for Cc1cc(C)c(SC(C)C(=O)NC(N)=O)c(C)c1 (stereo unspecified)?
**A.** IC50 [1]: > 10 µM; IC90: > 10 µM

**Q.** What does the source list for CC(=O)N(c1nc(/C=C2\NC(=S)NC2=O)cs1)c1c(C)cccc1C?
**A.** IC50 [1]: 8.24 µM; IC90: > 10 µM

**Q.** Cn1nnnc1SCC(=O)Nc1ccc(C(=O)Nc2ncccc2O)cc1 was tested. Which IC50 (PBLUC_HILL_SLOPE 1.53, PBLUC_R_SQUARED 0.512, read-out: LUCIFERASE INFECTION ASSAY - IC50) did it give?
**A.** The IC50 was 1.64 µM.

**Q.** And the IC90?
**A.** Its IC90 is 6.88 µM.

**Q.** Which results are given for CC(=O)c1cc2c(cc1NC(=O)c1ccc(Cn3cccn3)cc1)OCO2?
**A.** IC50 [1]: > 10 µM; IC90: > 10 µM

**Q.** What does the source list for COc1ccc(-c2cnc3cnc(-c4ccc(N5CCN(C)CC5)cc4)cn23)cc1?
**A.** IC50 (PBLUC_HILL_SLOPE 4.21, PBLUC_R_SQUARED 0.0945, read-out: LUCIFERASE INFECTION ASSAY - IC50): 6.36 µM; IC90: > 8.26 µM

**Q.** Which IC50 (HEPG2TOX_HILL_SLOPE 3.04, HEPG2TOX_R_SQUARED 0.82, PBLUC_HILL_SLOPE 1.45, PBLUC_R_SQUARED 0.471, read-out: LUCIFERASE INFECTION ASSAY - IC50) does the source give for CCN(CC)C(=O)c1ccc(Nc2nc(C(F)(F)F)nc3ccccc23)cc1 here?
**A.** The IC50 was 5.81 µM.

**Q.** And the IC90?
**A.** The IC90 was over 10 µM.

**Q.** What does the source list for COc1cc(OC)c(C2Nc3cc(Cl)c(S(N)(=O)=O)cc3S(=O)(=O)N2)cc1OC (stereo unspecified)?
**A.** IC50 [1]: > 10 µM; IC90: > 10 µM

**Q.** What does the source list for Cc1cccc(NC(=O)NC(=O)CSc2ccc(S(=O)(=O)N(C)C)cn2)c1C?
**A.** IC50 (FFLUC_HILL_SLOPE 22.1, FFLUC_R_SQUARED 0.241, read-out: LUCIFERASE INFECTION ASSAY - IC50): > 10 µM; IC90: > 10 µM

**Q.** With Cc1oc(-c2cccs2)nc1CC(=O)NNC(=O)CC12CC3CC(CC(C3)C1)C2 as the molecule, how does the IC50 (PBLUC_HILL_SLOPE 9.4, PBLUC_R_SQUARED 0.433, read-out: LUCIFERASE INFECTION ASSAY - IC50) read?
**A.** Its IC50 is 3.62 µM.

**Q.** And the IC90?
**A.** Its IC90 is 4.57 µM.

**Q.** How did the IC50 (PBLUC_HILL_SLOPE 3.22, PBLUC_R_SQUARED 0.606, read-out: LUCIFERASE INFECTION ASSAY - IC50) turn out when CCN(CC)S(=O)(=O)c1ccc(C(C)NC(=O)c2nn(CC)c(=O)c3ccccc23)cc1 (stereo unspecified) was run?
**A.** The IC50 was 2.02 µM.

**Q.** What about the IC90 of the same molecule?
**A.** The IC90 was 4.01 µM.

**Q.** What does the source list for Cc1n(C)c2c([n+]1C)C(=O)c1ccccc1C2=O?
**A.** IC50 (HEPG2TOX_HILL_SLOPE 0.401, HEPG2TOX_R_SQUARED 0.884, PBLUC_HILL_SLOPE 1.09, PBLUC_R_SQUARED 0.944, read-out: LUCIFERASE INFECTION ASSAY - IC50): 0.017 µM; IC90: 0.128 µM

**Q.** With Cc1[nH]c2ccccc2c1C(=O)/C(C#N)=C/c1ccc(-c2ccc(S(=O)(=O)N3CCOCC3)cc2)o1 as the molecule, how does the IC50 (FFLUC_HILL_SLOPE 49.5, FFLUC_R_SQUARED 0.839, HEPG2TOX_HILL_SLOPE 4, HEPG2TOX_R_SQUARED 0.152, PBLUC_HILL_SLOPE 1.9, PBLUC_R_SQUARED 0.247, read-out: LUCIFERASE INFECTION ASSAY - IC50) read?
**A.** The IC50 was 5.12 µM.

**Q.** And the IC90?
**A.** The IC90 was over 10 µM.

**Q.** How did the IC50 (PBLUC_HILL_SLOPE 2.25, PBLUC_R_SQUARED 0.588, read-out: LUCIFERASE INFECTION ASSAY - IC50) turn out when CCc1nc2ccccc2c(C(=O)OCC(=O)Nc2ccc(C#N)cc2)c1C was run?
**A.** The IC50 was 4.96 µM.

**Q.** What about the IC90 of the same molecule?
**A.** Its IC90 is over 10 µM.

**Q.** Which IC50 [1] does the source give for C=CCn1c(-c2ccoc2C)nn(CN(C)Cc2nc3ccccc3s2)c1=S here?
**A.** The IC50 was over 10 µM.

**Q.** And the IC90?
**A.** The IC90 was over 10 µM.

**Q.** With Cc1cccn2c(=O)cc(CSc3cc(C(=O)NC4CC4)c4ccccc4n3)nc12 as the molecule, how does the IC50 [1] read?
**A.** Its IC50 is over 10 µM.

**Q.** And the IC90?
**A.** The IC90 was over 10 µM.
